Experimental data taken from paper PMC11506774 (Biomolecules, 2024).
Converted amounts (≈) assume the structure as drawn.

Columns and labels:
RD cells = test: Cytotoxicity assay (CCK-8); type: cell-based; settings: 24 h, 2-fold dilutions from 1 mg/mL, CCK-8, absorbance 450 nm, mean ± SD, at least two independent experiments
Protocol: RD cells at a density of 4 × 10^4/100 µL/well were seeded in 96-well plates 24 h prior to the cytotoxicity assay. The peptide P25 and its derivatives were reconstituted in DMSO to a concentration of 25 mg/mL and then diluted to 1 mg/mL in DMEM with 100 mM HEPES, from which 2-fold serial dilutions of the peptides were produced, starting with the same medium. DMSO diluted in the same medium served as the control. Fifty microliters of diluted peptides and the control medium were added to the cells and cultured for 24 h. After cultivation, 5 µL of the enhanced CCK-8 reagent (Beyotime, C0043, Shanghai, China) were added directly to each well of the cell culture and cultured for an additional hour. Absorbance at 450 nm was detected using a TECAN Infinite 200 PRO instrument. The cell viability was normalized to the control, and the concentration at which a peptide inhibited 50% of the cell viability (CC50) was calculated using GraphPad Prism 9.5.1 (GraphPad software, San Diego, CA, USA).

Echo 30/WZ16 = settings: co-treatment, RD cells, 100 TCID50/50 µL, 24 h, crystal violet; mean ± SD, at least two independent experiments; >125 = protection less than 50% at 125 µg/mL; NO = no inhibition observed
EV-A71/FY0805 [1] = settings: for IC50 (µg/mL) EV-A71 /FY0805: 24 h
Poliovirus 3/nOPV3 = settings: 24 h
EV-A71/SZK2021 = settings: co-treatment, RD cells, 100 TCID50/50 µL, 24 h, crystal violet; mean ± SD, at least two independent experiments; NO = no inhibition observed
EV-D68/BCH895A = settings: co-treatment, RD cells, 100 TCID50/50 µL, 24 h, crystal violet; mean ± SD, at least two independent experiments; >125 = protection less than 50% at 125 µg/mL; NO = no inhibition observed
EV-D68 = test: Immunostaining of viral VP1 after post-infection peptide treatment; type: cell-based; settings: RD cells infected with 10 TCID50/50 µL EV-D68 for 1 h, washed, peptide at 125 µg/mL for 24 h, VP1 immune-stained area (ImageJ)
Protocol: RD cells at a density of 4 × 10^4/100 µL/well were seeded in 96-well plates 24 h prior to infection. Fifty microliters of the diluted peptide P25 were added under the following conditions: (1) pre-treatment: cells were pretreated with the peptides for 6 h, 4 h, and 2 h at 35 °C, followed by washing twice with DMEM before virus infection; (2) co-treatment: the peptide was added to the cells together with virus without washing; (3) post-treatment: […] to the medium. Co-treatment with a homemade neutralizing antibody of EV-D68 was employed as the reference control. An amount of 100 TCID50/50 µL was used for the CPE reading, while 10 TCID50/50 µL was used for immunostaining. After 22–24 h of incubation the cells were fixed using 4% formaldehyde and stained with crystal violet or an antibody. The staining of crystal violet was measured at 550 nm using a TECAN Infinite 200 PRO instrument. To detect EV-D68, the polyclonal anti-VP1 (Genetek, GTX132313, South San Francisco, CA, USA) was employed for immunostaining, while the rabbit polyclonal anti-VP1 for the staining of Echo11 was prepared in our laboratory. […] The number of plaques was counted using the CTL ELISPOT reader. […]

EV-A71/FY0805 [2] = test: Receptor competition inhibition assay with cell-free heparan sulfate (HS); type: cell-based; settings: peptide 62.5 µg/mL pre-incubated with HS (0–0.5 mg/mL) for 1 h, then mixed with 100 TCID50/50 µL EV-A71/FY0805, RD cells 24 h, crystal violet
Protocol: To confirm the interaction of P25 with receptor heparan sulfate (HS) on the cell surface, 50 µL P25 or its derivatives at a concentration of 62.5 µg/mL were pre-incubated with 50 µL cell-free HS (MCE, HY-101916, Princeton, NJ, USA) at different concentrations of 0–0.5 mg/mL at 37 °C for 1 h, mixed with 100 TCID50/50 µL of EV-A71/FY0805, and infected the pre-seeding RD monolayer cells on 96-well plates for 24 h. The CPE was detected and stained using crystal violet. The optical density (OD) at 550 nm was read using the TECAN Infinite 200 PRO instrument.

| Structure (SMILES) | CC50 (RD cells) | IC50 (µg/mL) Echo 30 /WZ16 (Echo 30/WZ16) | IC50 of P25 at 6 h of pre-treatment (EV-A71/FY0805 [1]; 6 h) | IC50 (µg/mL) EV-A71 /FY0805 (EV-A71/FY0805 [1]) | IC50 (µg/mL) Poliovirus 3 /nOPV3 (Poliovirus 3/nOPV3) | IC50 (µg/mL) EV-A71 /SZK2021 (EV-A71/SZK2021) | IC50 (µg/mL) EV-D68 /BCH895A (EV-D68/BCH895A) | Inhibition of the synthesis of the viral protein (EV-D68) | Interference of HS with the antiviral activity of the peptide (EV-A71/FY0805 [2]) |
| --- | --- | --- | --- | --- | --- | --- | --- | --- | --- |
| CC[C@H](C)[C@H](NC(=O)[C@H](Cc1c[nH]cn1)NC(=O)[C@H](CCCCN)NC(=O)[C@@H]1CCCN1C(=O)[C@H](CCCCN)NC(=O)[C@H](CCSC)NC(=O)[C@H](Cc1ccc(O)cc1)NC(=O)[C@@H](NC(=O)[C@H](CCCNC(=N)N)NC(=O)[C@@H](NC(=O)[C@@H](NC(=O)[C@@H](NC(=O)[C@@H](NC(=O)[C@H](Cc1ccccc1)NC(=O)CN)[C@@H](C)O)C(C)C)[C@@H](C)O)C(C)C)C(C)C)C(=O)N[C@@H](CCCCN)C(=O)N[C@@H](C)C(=O)N[C@@H](Cc1c[nH]c2ccccc12)C(=O)N[C@@H](C)C(=O)O [Peptide P25] | 256.43 ± 7.15 µg/mL (≈ 115 µM) | >125 µg/mL | 3.9 µg/mL | 32.35 ± 7.23 µg/mL (≈ 14.5 µM) | >125 µg/mL | 41.32 ± 8.46 µg/mL | 57.56 ± 5.81 µg/mL | – | – |
| CC[C@H](C)[C@H](NC(=O)[C@H](Cc1c[nH]cn1)NC(=O)[C@H](CCCCN)NC(=O)[C@@H]1CCCN1C(=O)[C@H](CCCCN)NC(=O)[C@H](CCSC)NC(=O)[C@H](Cc1ccc(O)cc1)NC(=O)[C@@H](NC(=O)[C@H](CCCNC(=N)N)NC(=O)[C@@H](NC(=O)[C@@H](NC(=O)[C@@H](NC(=O)[C@@H](NC(=O)[C@H](Cc1ccccc1)NC(=O)CNC(=O)[C@@H](NC(=O)[C@@H]1CCCN1C(=O)[C@H](CCC(N)=O)NC(=O)[C@@H](N)Cc1c[nH]cn1)C(C)C)[C@@H](C)O)C(C)C)[C@@H](C)O)C(C)C)C(C)C)C(=O)N[C@@H](CCCCN)C(=O)O [Peptide P25.9] | – | – | – | 13.02 ± 0.81 µg/mL (≈ 5.5 µM) | 108.10 ± 39.15 µg/mL (≈ 45.7 µM) | – | – | significantly inhibited the synthesis of the viral protein | interfered with by HS |
